Test results published in ChEMBL document CHEMBL1134264, “Identification of a subtype selective human PPARalpha agonist through parallel-array synthesis” (Bioorg Med Chem Lett, 2001).
Values joined by “and” are separate entries in the source; they are usually repeats but may differ in a detail not shown here. Equal values may be shown once. Active and inactive are the calls of the source. No cut-off for these calls is given here.

Assays:
[1] = molecular target: T1, Peroxisome proliferator-activated receptor alpha (Homo sapiens, UniProt Q07869)
T1 sequence (Q07869 whole entry): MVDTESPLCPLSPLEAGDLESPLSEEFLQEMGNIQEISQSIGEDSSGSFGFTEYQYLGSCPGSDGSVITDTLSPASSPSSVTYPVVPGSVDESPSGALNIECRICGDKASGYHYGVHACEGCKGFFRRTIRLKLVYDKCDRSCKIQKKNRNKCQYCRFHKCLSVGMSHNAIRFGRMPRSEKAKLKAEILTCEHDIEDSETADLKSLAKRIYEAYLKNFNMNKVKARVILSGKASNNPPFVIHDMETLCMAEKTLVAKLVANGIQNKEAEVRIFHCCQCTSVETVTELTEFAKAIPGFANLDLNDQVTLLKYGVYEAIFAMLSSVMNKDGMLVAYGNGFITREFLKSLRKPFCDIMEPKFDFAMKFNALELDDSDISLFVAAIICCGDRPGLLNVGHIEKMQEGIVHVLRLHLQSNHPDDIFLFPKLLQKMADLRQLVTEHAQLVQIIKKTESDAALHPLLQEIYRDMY
Description: In vitro transcriptional activation in CV-1 cells expressing human Gal4-PPAR alpha ligand binding domain

[2] = molecular target: T2, Peroxisome proliferator-activated receptor delta (Homo sapiens, UniProt Q03181); experiment: In vitro transcriptional activation in CV-1 cells expressing human Gal4-PPAR delta ligand binding domain; assay type: cell-based
T2 sequence (Q03181 whole entry): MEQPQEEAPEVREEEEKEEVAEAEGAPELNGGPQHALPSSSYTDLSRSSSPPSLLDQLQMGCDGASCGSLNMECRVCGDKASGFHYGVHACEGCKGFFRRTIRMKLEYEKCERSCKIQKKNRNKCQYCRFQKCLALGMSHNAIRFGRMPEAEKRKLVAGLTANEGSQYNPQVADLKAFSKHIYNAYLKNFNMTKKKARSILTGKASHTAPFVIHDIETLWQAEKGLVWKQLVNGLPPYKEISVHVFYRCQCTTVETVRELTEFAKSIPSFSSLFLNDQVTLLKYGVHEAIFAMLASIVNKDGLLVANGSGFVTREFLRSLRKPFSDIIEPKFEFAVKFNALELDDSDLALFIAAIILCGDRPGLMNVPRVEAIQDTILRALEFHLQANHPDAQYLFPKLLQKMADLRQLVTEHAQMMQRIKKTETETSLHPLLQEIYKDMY

Cricetinae gen. sp. [3] = experiment: In vivo triglyceride lowering activity in fat-fed hamsters at a dose of 3 mg/kg, po for 7 days; assay type: functional
[4] = molecular target: T3, Peroxisome proliferator-activated receptor gamma (Homo sapiens, UniProt P37231); experiment: In vitro transcriptional activation in CV-1 cells expressing human Gal4-PPAR gamma ligand binding domain; assay type: cell-based
T3 sequence (P37231 whole entry): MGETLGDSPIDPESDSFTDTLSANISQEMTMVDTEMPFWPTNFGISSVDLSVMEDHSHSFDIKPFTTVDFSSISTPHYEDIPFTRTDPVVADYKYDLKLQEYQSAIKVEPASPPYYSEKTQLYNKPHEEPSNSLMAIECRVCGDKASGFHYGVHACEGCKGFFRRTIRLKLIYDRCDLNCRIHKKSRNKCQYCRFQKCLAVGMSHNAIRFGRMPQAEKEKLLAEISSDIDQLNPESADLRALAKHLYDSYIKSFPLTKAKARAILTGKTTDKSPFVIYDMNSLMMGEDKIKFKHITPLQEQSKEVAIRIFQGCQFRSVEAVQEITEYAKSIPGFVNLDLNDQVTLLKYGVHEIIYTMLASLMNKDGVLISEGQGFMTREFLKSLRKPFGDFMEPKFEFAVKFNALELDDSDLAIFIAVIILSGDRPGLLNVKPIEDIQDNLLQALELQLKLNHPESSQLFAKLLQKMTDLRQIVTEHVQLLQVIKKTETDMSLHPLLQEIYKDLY

Cricetinae gen. sp. [5] = experiment: In vivo triglyceride lowering activity in fat-fed hamsters at a dose of 3 mg/kg, po for 7 days; not active; assay type: functional, organism-based; design: dose 3 mg/kg; conditions: Cricetulus griseus
Rattus norvegicus [6] = experiment: In vivo increase in HDL cholesterol in cholesterol/cholic acid fed rats at 3 mg/kg peroral dose for 4 days; assay type: functional; conditions: route oral
Rattus norvegicus [7] = experiment: In vivo decrease in serum apolipoprotein CIII in cholesterol/cholic acid fed rats at 3 mg/kg peroral dose for 4 days; assay type: functional; design: scale not given: the % may be the effect or the level left; conditions: route oral
Rattus norvegicus [8] = experiment: In vivo triglyceride lowering activity in cholesterol/cholic acid fed rats at 3 mg/kg peroral dose for 4 days; assay type: functional; conditions: route oral

EC50 [1]	EC50 [2]	EC50 [4]	Compound	Activity (Cricetinae gen. sp. [3]) [%]	Activity (Cricetinae gen. sp. [5])	Activity (Rattus norvegicus [6]) [%]	Activity (Rattus norvegicus [7]) [%]	Activity (Rattus norvegicus [8]) [%]
9 nM	> 10000 nM	1000 nM	CC(C)(Sc1ccc(CCN(CCCCC2CCCCC2)C(=O)Nc2cccc(C#N)c2)cc1)C(=O)O	-69				
6 nM	4000 nM	1200 nM	COc1ccc(NC(=O)N(CCc2ccc(SC(C)(C)C(=O)O)cc2)CCc2ccc(-c3ccccc3)cc2)c(OC)c1		inactive			
20 nM	> 10000 nM	2000 nM	Cc1ccc(NC(=O)N(CCCCC2CCCCC2)CCc2ccc(SC(C)(C)C(=O)O)cc2)cc1[N+](=O)[O-]	-78				
8 nM	5000 nM	2400 nM	CC(C)(Sc1ccc(CCN(CCc2ccc(-c3ccccc3)cc2)C(=O)NC2CCCCC2)cc1)C(=O)O	-70				
9 nM	> 10000 nM	1350 nM	Cc1cc(C)c(NC(=O)N(CCc2ccc(SC(C)(C)C(=O)O)cc2)CCc2ccc(-c3ccccc3)cc2)cc1C		inactive			
1 nM	> 10000 nM	1000 nM	CC(C)(Sc1ccc(CCN(CCCCC2CCCCC2)C(=O)Nc2cc(Cl)cc(Cl)c2)cc1)C(=O)O		inactive			
50 nM	> 10000 nM	2000 nM	CC(C)(Sc1ccc(CCN(CCc2ccc(-c3ccccc3)cc2)C(=O)Nc2cc(Cl)cc(Cl)c2)cc1)C(=O)O		inactive			
			CC(C)(Sc1ccc(CCN(CCCCC2CCCCC2)C(=O)NC2CCCCC2)cc1)C(=O)O [GW7647]	-93		60	40	60
17 nM and 20 nM	> 10000 nM and 2000 nM	8500 nM and 1400 nM	CC(C)c1ccc(NC(=O)N(CCc2ccc(SC(C)(C)C(=O)O)cc2)CCc2ccc(-c3ccccc3)cc2)cc1		inactive			
			CCCCCCCN(CCc1ccc(SC(C)(C)C(=O)O)cc1)C(=O)Nc1ccc(F)cc1F [GSK-9578]	-88				
100 nM	> 10000 nM	10000 nM	COc1ccc(C)cc1NC(=O)N(CCc1ccc(SC(C)(C)C(=O)O)cc1)CCc1ccc(-c2ccccc2)cc1	-33				

Compound	EC50 [1]	EC50 [2]	EC50 [4]	Activity (Cricetinae gen. sp. [3]) [%]	Activity (Cricetinae gen. sp. [5])	Activity (Rattus norvegicus [6]) [%]	Activity (Rattus norvegicus [7]) [%]	Activity (Rattus norvegicus [8]) [%]
COc1ccccc1NC(=O)N(CCCCC1CCCCC1)CCc1ccc(SC(C)(C)C(=O)O)cc1	5 nM	1100 nM	320 nM		inactive			
